One experiment deals with JAK 1 (Homo sapiens, UniProt P23458). Briefly: Biochemical potency on JAK1, TR-FRET LANCE Ultra kinase assay (examples 1-99). To be noted: ATP at Km (20 μM), read-out: JAK1 inhibitory activity (pIC50 class) (converted). A digest of the protocol:
(§1)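 Each JAK isoform (human) was tested separately in a peptide-phosphorylation TR-FRET assay at ATP ≈ Km. Eleven compound concentrations, top 20 μM, 5-fold spacing. Values are IC50s from normalized-response curve fits.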

The next experiment deals with JAK 2 (Homo sapiens, UniProt O60674). In words: Biochemical potency on JAK2, TR-FRET LANCE Ultra kinase assay (examples 1-99). To be noted: ATP at Km (0.7 μM), read-out: JAK2 inhibitory activity (pIC50 class) (converted). A digest of the protocol:
as §1
For orientation: TR-FRET usually uses a lanthanide donor and a delayed reading to cut background.

Another experiment concerns the target T1, JAK 3 (Homo sapiens, UniProt P52333).
T1 sequence (P52333 1-1124): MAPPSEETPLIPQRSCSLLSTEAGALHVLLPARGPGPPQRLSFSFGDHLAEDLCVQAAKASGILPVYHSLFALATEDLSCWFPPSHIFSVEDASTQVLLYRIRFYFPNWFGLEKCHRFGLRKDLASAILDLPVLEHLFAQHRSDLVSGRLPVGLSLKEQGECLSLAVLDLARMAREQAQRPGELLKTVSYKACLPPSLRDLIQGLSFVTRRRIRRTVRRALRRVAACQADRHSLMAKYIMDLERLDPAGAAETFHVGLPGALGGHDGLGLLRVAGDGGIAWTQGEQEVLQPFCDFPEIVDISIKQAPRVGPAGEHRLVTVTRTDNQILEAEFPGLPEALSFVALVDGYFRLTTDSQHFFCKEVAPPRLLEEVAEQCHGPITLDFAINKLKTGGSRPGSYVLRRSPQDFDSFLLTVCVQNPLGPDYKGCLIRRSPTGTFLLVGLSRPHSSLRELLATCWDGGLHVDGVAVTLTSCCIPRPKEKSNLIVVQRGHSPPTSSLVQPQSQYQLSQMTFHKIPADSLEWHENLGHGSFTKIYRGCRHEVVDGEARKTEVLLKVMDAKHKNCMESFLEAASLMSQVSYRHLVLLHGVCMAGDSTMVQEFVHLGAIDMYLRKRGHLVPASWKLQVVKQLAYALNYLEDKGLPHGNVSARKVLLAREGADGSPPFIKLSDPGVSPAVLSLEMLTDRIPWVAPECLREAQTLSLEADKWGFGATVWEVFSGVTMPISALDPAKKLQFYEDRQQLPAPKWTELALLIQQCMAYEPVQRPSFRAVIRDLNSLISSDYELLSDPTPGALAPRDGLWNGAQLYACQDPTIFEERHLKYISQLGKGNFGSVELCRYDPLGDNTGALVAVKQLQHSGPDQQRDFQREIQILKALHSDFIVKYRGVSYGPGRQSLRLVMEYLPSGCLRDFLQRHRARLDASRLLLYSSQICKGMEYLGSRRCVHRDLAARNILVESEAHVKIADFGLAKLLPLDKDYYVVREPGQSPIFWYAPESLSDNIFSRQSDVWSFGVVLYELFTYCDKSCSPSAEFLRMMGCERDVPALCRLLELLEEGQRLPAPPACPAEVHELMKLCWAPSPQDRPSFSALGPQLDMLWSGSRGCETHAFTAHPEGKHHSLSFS
In words: Biochemical potency on JAK3, TR-FRET LANCE Ultra kinase assay (examples 1-99). As to conditions: ATP at Km (0.2 μM), read-out: JAK3 inhibitory activity (pIC50 class) (converted). In outline: as §1

The next experiment has as its target TYK2 (Homo sapiens, UniProt P29597). In words: Biochemical potency on Tyk2, TR-FRET LANCE Ultra kinase assay (examples 1-99). As to conditions: ATP at Km (12 μM), read-out: Tyk2 inhibitory activity (pIC50 class) (converted). In outline:
as §1

SMILES strings stand for the structures.

Sequence of JAK 1 (P23458 whole entry, canonical isoform): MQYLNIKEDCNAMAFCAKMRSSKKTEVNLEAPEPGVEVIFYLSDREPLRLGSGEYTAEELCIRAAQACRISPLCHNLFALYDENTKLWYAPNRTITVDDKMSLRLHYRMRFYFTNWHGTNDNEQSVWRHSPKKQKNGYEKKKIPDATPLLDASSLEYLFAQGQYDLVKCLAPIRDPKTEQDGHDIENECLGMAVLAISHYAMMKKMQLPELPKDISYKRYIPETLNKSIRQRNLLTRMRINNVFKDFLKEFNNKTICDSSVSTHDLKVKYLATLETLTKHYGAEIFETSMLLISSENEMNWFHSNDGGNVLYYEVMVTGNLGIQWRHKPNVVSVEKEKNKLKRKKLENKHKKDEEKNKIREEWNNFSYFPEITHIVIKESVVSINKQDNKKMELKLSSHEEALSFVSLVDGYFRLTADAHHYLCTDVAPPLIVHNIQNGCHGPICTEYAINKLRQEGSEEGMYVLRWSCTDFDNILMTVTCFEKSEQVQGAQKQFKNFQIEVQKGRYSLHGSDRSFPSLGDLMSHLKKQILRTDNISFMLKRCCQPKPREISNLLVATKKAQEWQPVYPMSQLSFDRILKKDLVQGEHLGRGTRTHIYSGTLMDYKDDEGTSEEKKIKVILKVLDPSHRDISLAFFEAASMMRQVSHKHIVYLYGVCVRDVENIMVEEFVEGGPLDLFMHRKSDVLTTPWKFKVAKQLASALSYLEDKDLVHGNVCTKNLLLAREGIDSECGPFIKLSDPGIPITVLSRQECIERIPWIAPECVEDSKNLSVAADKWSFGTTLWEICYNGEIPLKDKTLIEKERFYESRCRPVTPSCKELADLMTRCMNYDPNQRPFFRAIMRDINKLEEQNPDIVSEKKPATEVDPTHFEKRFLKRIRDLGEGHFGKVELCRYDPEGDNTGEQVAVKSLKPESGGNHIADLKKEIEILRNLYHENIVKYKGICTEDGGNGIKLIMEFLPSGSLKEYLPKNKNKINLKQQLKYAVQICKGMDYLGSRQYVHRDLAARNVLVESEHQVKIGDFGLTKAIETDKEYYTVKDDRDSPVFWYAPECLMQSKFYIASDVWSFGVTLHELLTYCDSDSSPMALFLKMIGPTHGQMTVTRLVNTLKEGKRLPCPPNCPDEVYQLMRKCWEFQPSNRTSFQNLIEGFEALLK
Sequence of JAK 2 (O60674 whole entry): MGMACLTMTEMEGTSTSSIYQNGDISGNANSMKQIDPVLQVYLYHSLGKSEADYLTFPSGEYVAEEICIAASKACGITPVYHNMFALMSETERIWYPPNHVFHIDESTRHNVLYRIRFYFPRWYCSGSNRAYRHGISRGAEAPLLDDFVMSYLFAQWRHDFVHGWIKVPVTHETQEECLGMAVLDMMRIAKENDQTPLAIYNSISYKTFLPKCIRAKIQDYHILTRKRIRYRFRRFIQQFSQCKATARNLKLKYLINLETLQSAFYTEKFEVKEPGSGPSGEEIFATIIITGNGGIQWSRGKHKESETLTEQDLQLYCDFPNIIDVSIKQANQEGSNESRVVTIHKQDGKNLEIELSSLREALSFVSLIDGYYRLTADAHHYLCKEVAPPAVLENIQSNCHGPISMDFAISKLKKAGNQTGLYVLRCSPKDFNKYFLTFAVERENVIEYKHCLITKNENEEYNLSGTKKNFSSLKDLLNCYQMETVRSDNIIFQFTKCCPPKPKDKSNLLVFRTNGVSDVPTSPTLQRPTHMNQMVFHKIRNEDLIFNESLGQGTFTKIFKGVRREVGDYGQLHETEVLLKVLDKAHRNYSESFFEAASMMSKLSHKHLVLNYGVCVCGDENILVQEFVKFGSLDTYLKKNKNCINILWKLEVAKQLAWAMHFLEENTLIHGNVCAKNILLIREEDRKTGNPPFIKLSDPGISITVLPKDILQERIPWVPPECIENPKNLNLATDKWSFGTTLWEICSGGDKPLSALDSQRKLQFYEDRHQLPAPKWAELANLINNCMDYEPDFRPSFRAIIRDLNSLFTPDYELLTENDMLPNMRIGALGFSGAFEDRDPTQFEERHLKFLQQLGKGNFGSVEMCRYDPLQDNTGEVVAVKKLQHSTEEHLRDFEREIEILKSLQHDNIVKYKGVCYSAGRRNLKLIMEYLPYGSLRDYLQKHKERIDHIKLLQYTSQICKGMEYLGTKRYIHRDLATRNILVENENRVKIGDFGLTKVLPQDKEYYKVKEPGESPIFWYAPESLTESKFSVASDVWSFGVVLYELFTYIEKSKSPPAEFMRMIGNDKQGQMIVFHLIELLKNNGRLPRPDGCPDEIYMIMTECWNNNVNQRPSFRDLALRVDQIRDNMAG
Sequence of TYK2 (P29597 whole entry): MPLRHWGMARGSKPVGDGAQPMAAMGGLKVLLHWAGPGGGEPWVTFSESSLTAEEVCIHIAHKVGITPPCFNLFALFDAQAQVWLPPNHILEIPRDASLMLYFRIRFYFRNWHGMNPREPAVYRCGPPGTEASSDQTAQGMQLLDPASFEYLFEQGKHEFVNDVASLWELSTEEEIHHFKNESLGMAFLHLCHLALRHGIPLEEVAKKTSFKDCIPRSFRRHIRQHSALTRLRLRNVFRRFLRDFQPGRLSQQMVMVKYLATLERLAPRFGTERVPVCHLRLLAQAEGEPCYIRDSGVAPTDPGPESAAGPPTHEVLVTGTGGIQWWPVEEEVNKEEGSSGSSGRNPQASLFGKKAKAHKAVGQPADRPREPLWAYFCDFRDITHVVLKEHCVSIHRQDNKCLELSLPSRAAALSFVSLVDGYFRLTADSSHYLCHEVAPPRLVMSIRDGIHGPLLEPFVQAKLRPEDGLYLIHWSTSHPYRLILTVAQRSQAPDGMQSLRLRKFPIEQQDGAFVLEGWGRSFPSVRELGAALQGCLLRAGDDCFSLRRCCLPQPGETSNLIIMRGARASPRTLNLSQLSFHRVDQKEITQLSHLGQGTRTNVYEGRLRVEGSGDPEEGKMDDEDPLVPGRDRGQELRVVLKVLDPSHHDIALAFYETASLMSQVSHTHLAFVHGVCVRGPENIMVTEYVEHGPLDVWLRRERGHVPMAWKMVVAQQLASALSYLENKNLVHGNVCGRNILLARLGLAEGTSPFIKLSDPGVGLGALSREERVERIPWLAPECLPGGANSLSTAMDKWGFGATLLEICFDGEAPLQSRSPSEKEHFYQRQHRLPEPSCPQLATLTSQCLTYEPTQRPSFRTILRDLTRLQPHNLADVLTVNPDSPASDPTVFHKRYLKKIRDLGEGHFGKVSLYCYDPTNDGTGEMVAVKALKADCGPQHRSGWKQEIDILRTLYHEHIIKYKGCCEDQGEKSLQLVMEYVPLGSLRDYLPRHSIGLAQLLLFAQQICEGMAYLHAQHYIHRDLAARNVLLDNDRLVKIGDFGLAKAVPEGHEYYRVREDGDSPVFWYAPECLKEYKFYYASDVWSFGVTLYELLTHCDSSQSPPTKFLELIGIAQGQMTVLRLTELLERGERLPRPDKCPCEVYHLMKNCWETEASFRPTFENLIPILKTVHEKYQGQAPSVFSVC

Consider `COc1ccc(S(C)(=O)=O)cc1-n1nc(C(=O)NCCN(C)C)c2cnc(-c3cnn4cccnc34)cc21` [Example 82, N-(2-(dimethylamino)ethyl)-1-(2-methoxy-5-(methylsulfonyl)phenyl)-6-(pyrazolo[1,5-a]pyrimidin-3-yl)-1H-pyrazolo[4,3-c]pyridine-3-carboxamide], for which the IC50 was 5.01 to 50.1 nM at JAK 1, 5.01 to 50.1 nM on JAK 2, 5.01 to 50.1 nM on JAK 3 and more than 50.1 nM at TYK2.
Take `CNc1nn(-c2cc(S(C)(=O)=O)ccc2OC)c2cc(-c3cnn4cccnc34)ncc12` [Example 85, 1-(2-methoxy-5-(methylsulfonyl)phenyl)-N-methyl-6-(pyrazolo[1,5-a]pyrimidin-3-yl)-1H-pyrazolo[4,3-c]pyridin-3-amine]: the IC50 at JAK 1 was more than 50.1 nM; at JAK 2 it was not above 5.01 nM; on JAK 3, 5.01 to 50.1 nM; on TYK2, more than 50.1 nM.
Regarding `O=C(c1nn(-c2cc(Cl)ccc2OC(F)F)c2cc(-c3cnn4cccnc34)ncc12)N1CCS(=O)(=O)CC1` [Example 35, (1-(5-chloro-2-(difluoromethoxy)phenyl)-6-(pyrazolo[1,5-a]pyrimidin-3-yl)-1H-pyrazolo[4,3-c]pyridin-3-yl)(1,1-dioxidothiomorpholino)methanone], the IC50 at JAK 1, on JAK 2, on JAK 3 and on TYK2 was 5.01 to 50.1 nM in each case.
For `COc1ccc(F)cc1-n1nc(C)c2cnc(-c3cnn4cccnc34)cc21` [Example 1, 1-(5-fluoro-2-methoxyphenyl)-3-methyl-6-(pyrazolo[1,5-a]pyrimidin-3-yl)-1H-pyrazolo[4,3-c]pyridine], the IC50 is 5.01 to 50.1 nM on JAK 1, not above 5.01 nM on JAK 2, 5.01 to 50.1 nM at JAK 3 and 5.01 to 50.1 nM at TYK2.
As for `Cc1nn(-c2cc(S(=O)(=O)CC(N)=O)ccc2OC(F)F)c2cc(-c3cnn4cccnc34)ncc12` [Example 70, 2-((4-(difluoromethoxy)-3-(3-methyl-6-(pyrazolo[1,5-a]pyrimidin-3-yl)-1H-pyrazolo[4,3-c]pyridin-1-yl)phenyl)sulfonyl)acetamide], the IC50 is 5.01 to 50.1 nM on JAK 1, not above 5.01 nM on JAK 2, not above 5.01 nM on JAK 3 and more than 50.1 nM on TYK2.
With `COc1ccc(S(C)(=O)=O)cc1-n1nc(C(=O)NCCCN(C)C)c2cnc(-c3cnn4cccnc34)cc21` [Example 83, N-(3-(dimethylamino)propyl)-1-(2-methoxy-5-(methylsulfonyl)phenyl)-6-(pyrazolo[1,5-a]pyrimidin-3-yl)-1H-pyrazolo[4,3-c]pyridine-3-carboxamide], the IC50 is 5.01 to 50.1 nM on JAK 1, 5.01 to 50.1 nM at JAK 2, 5.01 to 50.1 nM at JAK 3 and more than 50.1 nM on TYK2.
Turning to `COc1ccc(F)cc1-n1nc(C(=O)NCCCN(C)C)c2cnc(-c3cnn4cccnc34)cc21` [Example 38, N-(3-(dimethylamino)propyl)-1-(5-fluoro-2-methoxyphenyl)-6-(pyrazolo[1,5-a]pyrimidin-3-yl)-1H-pyrazolo[4,3-c]pyridine-3-carboxamide], the IC50 was 5.01 to 50.1 nM on JAK 1, 5.01 to 50.1 nM on JAK 2, 5.01 to 50.1 nM on JAK 3 and more than 50.1 nM at TYK2.
`CNC(=O)CSc1ccc(OC(F)F)c(-n2nc(C)c3cnc(-c4cnn5cccnc45)cc32)c1` [Example 67, 2-((4-(difluoromethoxy)-3-(3-methyl-6-(pyrazolo[1,5-a]pyrimidin-3-yl)-1H-pyrazolo[4,3-c]pyridin-1-yl)phenyl)thio)-N-methylacetamide]: the IC50 on JAK 1 is 5.01 to 50.1 nM; at JAK 2, 5.01 to 50.1 nM; at JAK 3 it was 5.01 to 50.1 nM; on TYK2 it was more than 50.1 nM.
Take `COc1ccc(S(C)(=O)=O)cc1-n1nc(NCCN2CCOCC2)c2cnc(-c3cnn4cccnc34)cc21` [Example 43, 1-(2-methoxy-5-(methylsulfonyl)phenyl)-N-(2-morpholinoethyl)-6-(pyrazolo[1,5-a]pyrimidin-3-yl)-1H-pyrazolo[4,3-c]pyridin-3-amine]: the IC50 on JAK 1 was 5.01 to 50.1 nM; on JAK 2, 5.01 to 50.1 nM; at JAK 3 it was 5.01 to 50.1 nM; on TYK2 it was more than 50.1 nM.
For the compound `Cc1nn(-c2cc(C(=O)Nc3nccs3)ccc2OC(F)F)c2cc(-c3cnn4cccnc34)ncc12` [Example 66, 4-(difluoromethoxy)-3-(3-methyl-6-(pyrazolo[1,5-a]pyrimidin-3-yl)-1H-pyrazolo[4,3-c]pyridin-1-yl)-N-(thiazol-2-yl)benzamide], the IC50 on JAK 1 is 5.01 to 50.1 nM; on JAK 2 it was 5.01 to 50.1 nM; at JAK 3, not above 5.01 nM; on TYK2, more than 50.1 nM.
Regarding `COc1ccc(F)cc1-n1nc(NCCCN(C)C)c2cnc(Nc3ncc[nH]c3=O)cc21` [Example 97, 3-((3-((3-(dimethylamino)propyl)amino)-1-(5-fluoro-2-methoxyphenyl)-1H-pyrazolo[4,3-c]pyridin-6-yl)amino)pyrazin-2(1H)-one], the IC50 was 5.01 to 50.1 nM at JAK 1, not above 5.01 nM on JAK 2, not above 5.01 nM at JAK 3 and 5.01 to 50.1 nM at TYK2.
Take `COc1ccc(Cl)cc1-n1nc(C)c2cnc(-c3cnn4cccnc34)cc21` [Example 2, 1-(5-chloro-2-methoxyphenyl)-3-methyl-6-(pyrazolo[1,5-a]pyrimidin-3-yl)-1H-pyrazolo[4,3-c]pyridine]: the IC50 at JAK 1 is not above 5.01 nM; on JAK 2, not above 5.01 nM; on JAK 3, 5.01 to 50.1 nM; on TYK2 it was 5.01 to 50.1 nM.
As to `CNS(=O)(=O)c1ccc(OC)c(-n2nc(C)c3cnc(-c4cnn5cccnc45)cc32)c1` [Example 14, 4-methoxy-N-methyl-3-(3-methyl-6-(pyrazolo[1,5-a]pyrimidin-3-yl)-1H-pyrazolo[4,3-c]pyridin-1-yl)benzenesulfonamide], the IC50 on JAK 1 was 5.01 to 50.1 nM; on JAK 2 it was not above 5.01 nM; at JAK 3, not above 5.01 nM; at TYK2, 5.01 to 50.1 nM.
For `COc1ccc(Cl)cc1-n1nc(N2CCN(C(C)=O)CC2)c2cnc(-c3cnn4cccnc34)cc21` [Example 47, 1-(4-(1-(5-chloro-2-methoxyphenyl)-6-(pyrazolo[1,5-a]pyrimidin-3-yl)-1H-pyrazolo[4,3-c]pyridin-3-yl)piperazin-1-yl)ethan-1-one], the IC50 was 5.01 to 50.1 nM on JAK 1, 5.01 to 50.1 nM on JAK 2, 5.01 to 50.1 nM on JAK 3 and more than 50.1 nM on TYK2.
On to `COc1cc(O)c(F)cc1-n1nc(C(=O)NCCCN(C)C)c2cnc(-c3cnn4cccnc34)cc21` [Example 88, N-(3-(dimethylamino)propyl)-1-(5-fluoro-4-hydroxy-2-methoxyphenyl)-6-(pyrazolo[1,5-a]pyrimidin-3-yl)-1H-pyrazolo[4,3-c]pyridine-3-carboxamide], for which the IC50 on JAK 1 is not above 5.01 nM; at JAK 2, 5.01 to 50.1 nM; at JAK 3, 5.01 to 50.1 nM; on TYK2, 5.01 to 50.1 nM.
As to `COc1ccc(F)cc1-n1nc(C(=O)NCCCN(C)C)c2cnc(Nc3ncc[nH]c3=O)cc21` [Example 96, N-(3-(dimethylamino)propyl)-1-(5-fluoro-2-methoxyphenyl)-6-((3-oxo-3,4-dihydropyrazin-2-yl)amino)-1H-pyrazolo[4,3-c]pyridine-3-carboxamide], the IC50 at JAK 1, on JAK 2, on JAK 3 and on TYK2 was 5.01 to 50.1 nM throughout.
Regarding `COc1ccc(Cl)cc1-n1nc(N(C)C)c2cnc(-c3cnn4cccnc34)cc21` [Example 42, 1-(5-chloro-2-methoxyphenyl)-N,N-dimethyl-6-(pyrazolo[1,5-a]pyrimidin-3-yl)-1H-pyrazolo[4,3-c]pyridin-3-amine], the IC50 at JAK 1, at JAK 2, at JAK 3 and on TYK2 was 5.01 to 50.1 nM in each case.

The record behind these values is patent publication US20240279240A1, “HETEROCYCLIC DERIVATIVES AS JANUS KINASE INHIBITORS” (CHIESI FARMACEUTICI S.P.A., priority 2021, published 2024).
